The record followed here is patent US7253192B2, “Phenyl derivatives comprising an acetylene group” (Hoffmann-La Roche Inc., priority 2004, dated 2007).

The target of one series is T1, PPARδ (Homo sapiens, UniProt Q03181).
T1 construct: PPARδ (aa 139 to 442); made in house; host or cells: E. coli BL21 (pLysS)
T1 sequence (Q03181 139-441 limits assumed): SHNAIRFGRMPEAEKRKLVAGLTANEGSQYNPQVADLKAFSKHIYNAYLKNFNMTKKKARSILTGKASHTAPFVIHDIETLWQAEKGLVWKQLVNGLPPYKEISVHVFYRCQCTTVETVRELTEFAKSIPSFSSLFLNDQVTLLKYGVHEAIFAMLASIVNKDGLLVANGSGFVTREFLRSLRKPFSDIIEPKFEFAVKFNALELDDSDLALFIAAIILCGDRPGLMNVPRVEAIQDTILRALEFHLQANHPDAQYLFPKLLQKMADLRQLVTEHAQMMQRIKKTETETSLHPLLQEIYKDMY
Nature of the series: Radioligand binding assay (SPA), PPARδ receptor binding. The following applies: GST-PPARδ-LBD fusion protein, scintillation proximity radioligand binding. From the text: (§1) Full-length cDNA clones for humans PPARδ and PPARα and mouse PPARγ were obtained by RT-PCR from human adipose and mouse liver cRNA, respectively, cloned into plasmid vectors and verified by DNA sequencing. Bacterial and mammalian expression vectors were constructed to produce glutathione-s-transferase (GST) and Gal4 DNA binding domain proteins fused to the ligand binding domains (LBD) of PPARδ (aa 139 to 442), PPARγ (aa 174 to 476) and PPARα (aa 167 to 469). To accomplish this, the portions of the cloned sequences encoding the LBDs were amplified from the full-length clones by PCR and then subcloned into the plasmid vectors. Final clones were verified by DNA sequence analysis.
(§2) Induction, expression, and purification of GST-LBD fusion proteins were performed in E. coli strain BL21 (pLysS) cells by standard methods (Ref: Current Protocols in Molecular Biology, Wiley Press, edited by Ausubel et al.).
PPARδ receptor binding was assayed in HNM10 (50 mM Hepes, pH 7.4, 10 mM NaCl, 5 mM MgCl2, 0.15 mg/ml fatty acid-free BSA and 15 mM DTT). For each 96 well reaction a 500 ng equivalent of GST-PPARδ-LBD fusion protein and radioligand, e.g. 20000 dpm {2-methyl-4-[4-methyl-2-(4-trifluoromethyl-phenyl)-thiazol-5-yl-ditritiomethylsulfanyl]-phenoxy}-acetic acid, was bound to 10 μg SPA beads (PharmaciaAmersham) in a final volume of 50 μl by shaking. The resulting slurry was incubated for 1 h at RT and centrifuged for 2 min at 1300 g. The supernatant containing unbound protein was removed and the semidry pellet containing the receptor-coated beads was resuspended in 50 μl of HNM. Radioligand was added and the reaction incubated at RT for 1 h and scintillation proximity counting performed in the presence of test compounds was determined. All binding assays were performed in 96 well plates and the amount of bound ligand was measured on a Packard TopCount using OptiPlates (Packard). Dose response curves were done in triplicates within a range of concentration from 10^−10 M to 10^−4 M.
For orientation: Scintillation proximity formats need no separation of bound from free tracer.

The target of the next series is T2, PPARγ (Mus musculus, UniProt P37238).
T2 construct: PPARγ (aa 174 to 476); made in house; host or cells: E. coli BL21 (pLysS)
T2 sequence (P37238 204-505): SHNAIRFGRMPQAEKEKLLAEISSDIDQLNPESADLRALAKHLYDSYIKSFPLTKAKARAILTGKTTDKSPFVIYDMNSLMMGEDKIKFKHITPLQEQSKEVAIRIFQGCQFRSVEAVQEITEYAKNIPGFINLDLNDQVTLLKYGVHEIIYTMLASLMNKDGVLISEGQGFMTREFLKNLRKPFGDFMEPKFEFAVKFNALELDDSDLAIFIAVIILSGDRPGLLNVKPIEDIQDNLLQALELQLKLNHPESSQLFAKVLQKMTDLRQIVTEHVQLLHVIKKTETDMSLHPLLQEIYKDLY
Kind of series: Radioligand binding assay (SPA), PPARγ receptor binding. Particulars: GST-PPARγ-LBD fusion protein, scintillation proximity radioligand binding.
From the text: as §1, §2
PPARγ receptor binding was assayed in TKE50 (50 mM Tris-HCl, pH 8, 50 mM KCl, 2 mM EDTA, 0.1 mg/ml fatty acid-free BSA and 10 mM DTT). For each 96 well reaction an 140 ng equivalent of GST-PPARγ-LBD fusion protein was bound to 10 μg SPA beads (PharmaciaAmersham) in a final volume of 50 μl by shaking. The resulting slurry was incubated for 1 h at RT and centrifuged for 2 min at 1300 g. The supernatant containing unbound protein was removed and the semidry pellet containing the receptor-coated beads was resolved in 50 ul of TKE. For radioligand binding e.g. 10000 dpm 2(S)-(2-benzoyl-phenylamino)-3-{4-[1,1-ditritio-2-(5-methyl-2-phenyl-oxazol-4-yl)-ethoxy]-phenyl}-propionic acid in 50 μl were added, the reaction incubated at RT for 1 h and scintillation proximity counting performed. All binding assays were performed in 96 well plates and the amount of bound ligand measured on a Packard TopCount using OptiPlates (Packard). Nonspecific binding was determined in the presence of 10^−4 M unlabelled compound. Dose response curves were done in triplicates within a range of concentration from 10^−10 M to 10^−4 M.

A further series has as its target T3, PPARα (Homo sapiens, UniProt Q07869).
T3 construct: PPARα (aa 167 to 469); made in house; host or cells: E. coli BL21 (pLysS)
T3 sequence (Q07869 167-468 limits assumed): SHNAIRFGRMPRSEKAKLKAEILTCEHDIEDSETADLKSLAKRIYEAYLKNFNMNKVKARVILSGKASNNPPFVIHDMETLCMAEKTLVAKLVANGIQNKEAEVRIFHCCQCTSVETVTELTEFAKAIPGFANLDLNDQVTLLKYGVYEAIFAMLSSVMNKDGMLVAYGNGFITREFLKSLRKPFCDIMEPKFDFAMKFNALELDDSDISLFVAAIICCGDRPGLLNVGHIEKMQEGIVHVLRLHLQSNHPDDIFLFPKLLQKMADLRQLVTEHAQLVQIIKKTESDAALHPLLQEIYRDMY
Nature of the series: Radioligand binding assay (SPA), PPARα receptor binding. Particulars: GST-PPARα-LBD fusion protein, scintillation proximity radioligand binding.
From the text: as §1, §2
PPARα receptor binding was assayed in TKE50 (50 mM Tris-HCl, pH 8, 50 mM KCl, 2 mM EDTA, 0.1 mg/ml fatty acid-free BSA and 10 mM DTT). For each 96 well reaction an 140 ng equivalent of GST-PPARα-LBD fusion protein was bound to 10 μg SPA beads (PharmaciaAmersham) in a final volume of 50 μl by shaking. The resulting slurry was incubated for 1 h at RT and centrifuged for 2 min at 1300 g. The supernatant containing unbound protein was removed and the semidry pellet containing the receptor-coated beads was resolved in 50 μl of TKE. For radioligand binding e.g. 10000 dpm of 2(S)-(2-benzoyl-phenylamino)-3-{4-[1,1-ditritio-2-(5-methyl-2-phenyl-oxazol-4-yl)-ethoxy]-phenyl}-propionic acid or 2,3-ditritio-2(S)-methoxy-3-{4-[2-(5-methyl-2-phenyl-oxazol-4-yl)-ethoxy]-benzo [b]thiophen-7-yl}-propionic acid in 50 ul were added, the reaction incubated at RT for 1 h and scintillation proximity counting performed. All binding assays were performed in 96 well plates and the amount of bound ligand measured on a Packard TopCount using OptiPlates (Packard). Nonspecific binding was determined in the presence of 10^−4 M unlabelled compound. […]

Bounds are passed on as bounds.

One may read the IC50 as the concentration at which inhibition is half-maximal. What is called melting point is the temperature of the solid-liquid transition.

Turning to `Cc1cc(SCCCC#Cc2ccc(OC(F)(F)F)cc2)ccc1OCC(=O)O` [Example 4, {2-Methyl-4-[5-(4-trifluoromethoxy-phenyl)-pent-4-ynylsulfanyl]-phenoxy}-acetic acid], the melting point lay in the range of 94 to 95 °C. For the same molecule, on PPARδ, the IC50 was determined as 39 nM. Besides, the half-maximal inhibitory concentration (IC50) on PPARγ is above 10000 nM. Further, at PPARα, the IC50 worked out at 14 nM.

Consider `Cc1cc(OCCCC#Cc2ccc(OC(F)(F)F)cc2)ccc1OC(C)(C)C(=O)O` [Example 13, 2-Methyl-2-{2-methyl-4-[5-(4-trifluoromethoxy-phenyl)-pent-4-ynyloxy]-phenoxy}-propionic acid], for which the melting point is 90 to 91 °C (dec.). For the same molecule, at PPARδ, the IC50 is 120 nM. On PPARγ, this molecule had a concentration for half-maximal inhibition (IC50) above 10000 nM. For the same molecule, the IC50 on PPARα stood at 21 nM.

For the molecule `Cc1cc(OCCC#Cc2ccc(OC(F)(F)F)cc2)ccc1OC(C)(C)C(=O)O` [Example 17, 2-Methyl-2-{2-methyl-4-[4-(4-trifluoromethoxy-phenyl)-but-3-ynyloxy]-phenoxy}-propionic acid], the melting point was 62 to 71 °C (dec.). The IC50 at PPARδ is 203 nM. The molecule also displayed an IC50 on PPARγ above 10000 nM. The molecule also gave a half-inhibitory concentration (IC50) at PPARα of 18 nM.

With `Cc1c(OC(C)(C)C(=O)O)ccc(OCCCC#Cc2ccc(OC(F)(F)F)cc2)c1F` [Example 33, 2-{3-Fluoro-2-methyl-4-[5-(4-trifluoromethoxy-phenyl)-pent-4-ynyloxy]-phenoxy}-2-methyl-propionic acid], the melting point lay within 116 to 118 °C.
